# Values joined by “and” are separate entries in the source; they are usually repeats but may differ in a detail not shown here. Equal values may be shown once. Inconclusive results and toxic doses are left out.
# Tested on: P388 leukemia ip, CD2F1 mice, survival T/C
# Test: NCI In Vivo Anticancer Drug Screen. Data for tumor model P388 Leukemia (intraperitoneal) in CD2F1 (CDF1) mice
# Conditions: endpoint: median survival time, higher = longer survival
# Procedure, shortened: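 Mice carrying the transplanted tumor received test compound or vehicle. Survival was recorded in each group, and the value is the treated-group measurement divided by that of the vehicle-treated control group.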
# [1] = dose: 50.0 mg/kg/injection, schedule: Q01DX005 (ip), vehicle: Klucel (hydroxypropylcellulose) (HPC)
# [2] = dose: 100.0 mg/kg/injection, schedule: Q01DX005 (ip), vehicle: Klucel (hydroxypropylcellulose) (HPC)
# [3] = dose: 50.0 mg/kg/injection, schedule: Q01DX005 (ip), vehicle: saline
# [4] = dose: 100.0 mg/kg/injection, schedule: Q01DX005 (ip), vehicle: saline
# [5] = dose: 200.0 mg/kg/injection, schedule: Q01DX005 (ip), vehicle: saline
# [6] = dose: 50.0 mg/kg/injection, schedule: Q01DX009 (ip), vehicle: saline with Tween-80
# [7] = dose: 100.0 mg/kg/injection, schedule: Q01DX009 (ip), vehicle: saline with Tween-80
# [8] = dose: 100.0 mg/kg/injection, schedule: Q04DX003 (ip), vehicle: Klucel (hydroxypropylcellulose) (HPC)
# [9] = dose: 200.0 mg/kg/injection, schedule: Q04DX003 (ip), vehicle: Klucel (hydroxypropylcellulose) (HPC)
# [10] = dose: 400.0 mg/kg/injection, schedule: Q04DX003 (ip), vehicle: Klucel (hydroxypropylcellulose) (HPC)
# [11] = dose: 100.0 mg/kg/injection, schedule: Q04DX003 (ip), vehicle: suspension in saline
# [12] = dose: 100.0 mg/kg/injection, schedule: Q01DX009 (ip), vehicle: Klucel (hydroxypropylcellulose) (HPC)
# [13] = dose: 200.0 mg/kg/injection, schedule: Q01DX009 (ip), vehicle: Klucel (hydroxypropylcellulose) (HPC)
# [14] = dose: 50.0 mg/kg/injection, schedule: Q01DX009 (ip), vehicle: saline
# [15] = dose: 100.0 mg/kg/injection, schedule: Q01DX009 (ip), vehicle: saline
# [16] = dose: 60.0 mg/kg/injection, schedule: Q01DX005 (ip), vehicle: saline
# [17] = dose: 120.0 mg/kg/injection, schedule: Q01DX005 (ip), vehicle: saline
# [18] = dose: 240.0 mg/kg/injection, schedule: Q01DX005 (ip), vehicle: saline
structure (smiles),measurement,setting,value
CC12CCC(OC3CCCCO3)CC1=CCC1C2CCC2(C)C(O)/C(=N\O)CC12 (stereo not drawn),T/C,"dose: 100.0 mg/kg/injection, schedule: Q04DX002 (ip), vehicle: saline",91 % of control
same,T/C,"dose: 200.0 mg/kg/injection, schedule: Q04DX002 (ip), vehicle: saline",94 % of control
same,T/C,"dose: 400.0 mg/kg/injection, schedule: Q04DX002 (ip), vehicle: saline",90 % of control
COc1ccc(C(O)(CCN2CCOCC2)c2ccc3c(c2)OCO3)cc1 (stereo not drawn),T/C,[1],90 % of control
same,T/C,[2],91 % of control
[Cl][Sn]1([Cl])[CH2]CC[CH2][Sn]([Cl])([Cl])[CH2]CC[CH2][Sn]([Cl])([Cl])[CH2]CC[CH2][Sn]([Cl])([Cl])[CH2]CC[CH2]1,T/C,[3],93 % of control
same,T/C,[4],92 % of control
same,T/C,[5],102 % of control
O=C(O)c1cccnn1,T/C,[6],90 % of control
same,T/C,[7],90 % of control
Cc1cc(C(=O)c2ccccc2)on1,T/C,[8],104 % of control
same,T/C,[9],100 % of control
same,T/C,[10],100 % of control
COc1cc2c(cc1C(C)c1ccc(O)cc1)OCO2 (stereo not drawn),T/C,"dose: 50.0 mg/kg/injection, schedule: Q01DX005 (ip), vehicle: distilled water + Tween-80",100 % of control
same,T/C,"dose: 100.0 mg/kg/injection, schedule: Q01DX005 (ip), vehicle: distilled water + Tween-80",97 % of control
same,T/C,"dose: 200.0 mg/kg/injection, schedule: Q01DX005 (ip), vehicle: distilled water + Tween-80",96 % of control
O=C1C(c2ccccc2)=C(c2ccc(Br)cc2)C2(c3ccc(Br)cc3)CC12c1ccccc1 (stereo not drawn),T/C,"dose: 50.0 mg/kg/injection, schedule: Q01DX005 (ip), vehicle: Klucel + Tween-80",91 % of control
same,T/C,"dose: 100.0 mg/kg/injection, schedule: Q01DX005 (ip), vehicle: Klucel + Tween-80",88 % of control
COc1c(C)n(CCO)ccc1=O,T/C,[3],102 % of control and 104 % of control
same,T/C,[4],99 % of control and 100 % of control
same,T/C,[5],99 % of control and 100 % of control
same,T/C,"dose: 400.0 mg/kg/injection, schedule: Q01DX005 (ip), vehicle: saline",99 % of control and 103 % of control
C=CC(=O)OCC(C)(C)C,T/C,[3],99 % of control
same,T/C,[4],98 % of control
same,T/C,[5],116 % of control
Cc1nc(N)c2nonc2n1,T/C,"dose: 25.0 mg/kg/injection, schedule: Q04DX003 (ip), vehicle: suspension in saline",98 % of control
same,T/C,"dose: 50.0 mg/kg/injection, schedule: Q04DX003 (ip), vehicle: suspension in saline",103 % of control
same,T/C,[11],94 % of control
same,T/C,"dose: 200.0 mg/kg/injection, schedule: Q04DX003 (ip), vehicle: suspension in saline",95 % of control
C/C=C/C(=O)Nc1ncc([N+](=O)[O-])s1,T/C,"dose: 50.0 mg/kg/injection, schedule: Q01DX009 (ip), vehicle: Klucel (hydroxypropylcellulose) (HPC)",111 % of control
same,T/C,[12],114 % of control
same,T/C,[13],113 % of control
O=[N+]([O-])c1cc2c(cc1I)C1C(C3C2C2(Cl)C(Cl)=C(Cl)C3(Cl)C2(Cl)Cl)C2(Cl)C(Cl)=C(Cl)C1(Cl)C2(Cl)Cl (stereo not drawn),T/C,[14],108 % of control
same,T/C,[15],106 % of control
same,T/C,"dose: 200.0 mg/kg/injection, schedule: Q01DX009 (ip), vehicle: saline",106 % of control
COc1ccc(/C=C2/C(=O)ON=C2C)cc1,T/C,"dose: 60.0 mg/kg/injection, schedule: Q01DX005 (ip), vehicle: saline with Tween-80",108 % of control
same,T/C,"dose: 120.0 mg/kg/injection, schedule: Q01DX005 (ip), vehicle: saline with Tween-80",110 % of control
same,T/C,"dose: 240.0 mg/kg/injection, schedule: Q01DX005 (ip), vehicle: saline with Tween-80",109 % of control
CC(C)(C)N1C(=O)[N+]2(CCCCC2)N=C1[O-],T/C,"dose: 100.0 mg/kg/injection, schedule: Q04DX003 (ip), vehicle: saline with Tween-80",93 % of control
same,T/C,"dose: 200.0 mg/kg/injection, schedule: Q04DX003 (ip), vehicle: saline with Tween-80",99 % of control
same,T/C,"dose: 400.0 mg/kg/injection, schedule: Q04DX003 (ip), vehicle: saline with Tween-80",86 % of control
CC(C(=O)O)n1c(=O)ssc1=O (stereo not drawn),T/C,"dose: 15.0 mg/kg/injection, schedule: Q01DX005 (ip), vehicle: Klucel (hydroxypropylcellulose) (HPC)",102 % of control
same,T/C,"dose: 30.0 mg/kg/injection, schedule: Q01DX005 (ip), vehicle: Klucel (hydroxypropylcellulose) (HPC)",93 % of control
same,T/C,"dose: 60.0 mg/kg/injection, schedule: Q01DX005 (ip), vehicle: Klucel (hydroxypropylcellulose) (HPC)",93 % of control
NCC(O)c1cccc(C(F)(F)F)c1 (stereo not drawn),T/C,[14],92 % of control
same,T/C,[15],100 % of control
O=C(Cc1ccccc1)N1CCc2cc3c(cc2/C1=C/c1cc2c(cc1Br)OCO2)OCO3,T/C,"dose: 12.5 mg/kg/injection, schedule: Q01DX001 (ip), vehicle: saline + alcohol",100 % of control
same,T/C,"dose: 25.0 mg/kg/injection, schedule: Q01DX001 (ip), vehicle: saline + alcohol",99 % of control
same,T/C,"dose: 50.0 mg/kg/injection, schedule: Q01DX001 (ip), vehicle: saline + alcohol",100 % of control
COC1(OC)C=NNc2ncnn21,T/C,[16],103 % of control
same,T/C,[17],104 % of control
same,T/C,[18],105 % of control
CCCC(O)CNCc1ccnc2ccc(OC)cc12 (stereo not drawn),T/C,[3],109 % of control
same,T/C,[4],98 % of control
CC(=O)NC1CCCCC1C1CCC(N)CC1 (stereo not drawn),T/C,"dose: 50.0 mg/kg/injection, schedule: Q01DX005 (ip), vehicle: saline with Tween-80",99 % of control
same,T/C,"dose: 100.0 mg/kg/injection, schedule: Q01DX005 (ip), vehicle: saline with Tween-80",102 % of control
same,T/C,"dose: 200.0 mg/kg/injection, schedule: Q01DX005 (ip), vehicle: saline with Tween-80",87 % of control
Ic1ccc2c(c1)N(c1ccccc1)c1cc(N=c3ccc4nc5ccc(I)cc5n(-c5ccccc5)c-4c3)ccc1N2,T/C,[12],96 % of control
same,T/C,[13],89 % of control
CCCn1c2ccccc2c2ccccc21,T/C,[8],104 % of control
same,T/C,[9],104 % of control
same,T/C,[10],100 % of control
Cc1ccc(OP(=O)(Oc2ccc(C)cc2)Oc2ccc(C)cc2)cc1.Cc1ccc(OP(=O)(Oc2ccc(C)cc2)Oc2ccc(C)cc2)cc1.[Cl][Co][Cl],T/C,"dose: 100.0 mg/kg/injection, schedule: Q01DX001 (ip), vehicle: Klucel (hydroxypropylcellulose) (HPC)",96 % of control
same,T/C,"dose: 200.0 mg/kg/injection, schedule: Q01DX001 (ip), vehicle: Klucel (hydroxypropylcellulose) (HPC)",100 % of control
same,T/C,"dose: 400.0 mg/kg/injection, schedule: Q01DX001 (ip), vehicle: Klucel (hydroxypropylcellulose) (HPC)",92 % of control
Cc1ccc2c(c1)nc(Cl)n2Cc1ccccc1,T/C,[1],100 % of control
same,T/C,[2],102 % of control
same,T/C,"dose: 200.0 mg/kg/injection, schedule: Q01DX005 (ip), vehicle: Klucel (hydroxypropylcellulose) (HPC)",102 % of control
C=C1C(=O)C23CC1CCC2C12COC(OC(=O)CCCCCCCCCCCCC)C1C(C)(C)C(O)CC2OC3=O (stereo not drawn),T/C,"dose: 7.5 mg/kg/injection, schedule: Q01DX009 (ip), vehicle: saline with Tween-80",109 % of control
same,T/C,"dose: 15.0 mg/kg/injection, schedule: Q01DX009 (ip), vehicle: saline with Tween-80",109 % of control
same,T/C,"dose: 30.0 mg/kg/injection, schedule: Q01DX009 (ip), vehicle: saline with Tween-80",100 % of control
same,T/C,"dose: 60.0 mg/kg/injection, schedule: Q01DX009 (ip), vehicle: saline with Tween-80",111 % of control
COC(=O)C1(C(C)C(=O)c2ccccc2)NC(=S)NC(=O)C1C#N (stereo not drawn),T/C,[16],88 % of control
same,T/C,[17],98 % of control
same,T/C,[18],100 % of control
CCCCCCCCCCCCCCC(O)c1ccccc1 (stereo not drawn),T/C,"dose: 7.5 mg/kg/injection, schedule: Q01DX009 (ip), vehicle: Klucel (hydroxypropylcellulose) (HPC)",113 % of control
same,T/C,"dose: 15.0 mg/kg/injection, schedule: Q01DX009 (ip), vehicle: Klucel (hydroxypropylcellulose) (HPC)",115 % of control
same,T/C,"dose: 30.0 mg/kg/injection, schedule: Q01DX009 (ip), vehicle: Klucel (hydroxypropylcellulose) (HPC)",110 % of control
C[O][Sn]([O][Sn]([Cl])([c]1ccccc1)[c]1ccccc1)([c]1ccccc1)[c]1ccccc1,T/C,"dose: 50.0 mg/kg/injection, schedule: Q04DX003 (ip), vehicle: saline",177 % of control
same,T/C,[11],106 % of control
COC(=O)C1CC1(Cl)OC (stereo not drawn),T/C,[6],102 % of control
same,T/C,[7],102 % of control
same,T/C,"dose: 200.0 mg/kg/injection, schedule: Q01DX009 (ip), vehicle: saline with Tween-80",105 % of control

# — PubChem BioAssay AID330 (DTP/NCI, 2004)
